One assay relates to BE-13. The assay is described as follows: 7-day Cell Titer Glo viability assay. In kind it is cell-based, Human. As to conditions: BE-13 cells, 7-day viability assay. The procedure: (§1) Human T-ALL cell lines were purchased from ATCC (Manassas, Va.) or DSMZ (Braunschweig, Germany). Cell lines were maintained in RPMI supplemented with 10-15% FBS and 2 mmol/L glutamine. For IC50 analyses TALL cell lines were plated in 96 well plates at 5000 cells/well, except for Tall-1 cells which were plated at 10,000 cells/well. Cells were re-fed with compound and media on day 4. Viability assays were performed using Cell Titer Glo kit (Promega, Cat. No. G7572, Fitchburg, Wis.) 7 days after compound addition. For larger scale compound treatments, TALL cell lines were plated in T-150 flasks at 200,000 cells/mL and treated at 0.1 or 1.0 μM GSI (MRK-003) for 3 days or as indicated. GSI washout studies were performed using 10 μM GSI. T-150 cultures were also re-fed on day 4.
A general note: In ATP-based viability assays light output follows the ATP content of the culture.

The next assay concerns CEM. The assay is described as follows: 7-day Cell Titer Glo viability assay. In kind it is cell-based, Human. The conditions noted are these: CEM cells, 7-day viability assay. As for the experimental part: as §1
Another assay relates to DND41. The assay is described as follows: 7-day Cell Titer Glo viability assay. In kind it is cell-based, Human. As to conditions: DND41 cells, 7-day viability assay. As for the experimental part: as §1
A further assay relates to HBP-ALL. In words: 7-day Cell Titer Glo viability assay. As to conditions: HBP-ALL cells, 7-day viability assay. The format is cell-based, Human. As for the experimental part:
as §1

A further assay deals with HSB-2. In words: 7-day Cell Titer Glo viability assay. The format is cell-based, Human. As to conditions: HSB-2 cells, 7-day viability assay. As for the experimental part:
as §1

The subject of another assay is JURKAT. The assay is described as follows: 7-day Cell Titer Glo viability assay. The format is cell-based, Human. As to conditions: JURKAT cells, 7-day viability assay. The procedure: as §1
The next assay relates to KARPAS-45. In words: 7-day Cell Titer Glo viability assay. In kind it is cell-based, Human. The conditions noted are these: KARPAS-45 cells, 7-day viability assay. As for the experimental part: as §1
The subject of another assay is KOPTK-1. The assay is described as follows: 7-day Cell Titer Glo viability assay. In kind it is cell-based, Human. The conditions noted are these: KOPTK-1 cells, 7-day viability assay. The procedure:
as §1

The next assay deals with LOUCY. The assay is described as follows: 7-day Cell Titer Glo viability assay. The format is cell-based, Human. As to conditions: LOUCY cells, 7-day viability assay. As for the experimental part: as §1
The subject of a further assay is MOLT -4. In words: 7-day Cell Titer Glo viability assay. The format is cell-based, Human. As to conditions: MOLT -4 cells, 7-day viability assay. As for the experimental part: as §1
A further assay concerns MOLT-16. In words: 7-day Cell Titer Glo viability assay. In kind it is cell-based, Human. The conditions noted are these: MOLT-16 cells, 7-day viability assay. As for the experimental part:
as §1

The subject of a further assay is PF-382. The assay is described as follows: 7-day Cell Titer Glo viability assay. As to conditions: PF-382 cells, 7-day viability assay. In kind it is cell-based, Human. As for the experimental part:
as §1

The subject of the next assay is RPMI 8402. In words: 7-day Cell Titer Glo viability assay. The format is cell-based, Human. The conditions noted are these: RPMI 8402 cells, 7-day viability assay. As for the experimental part: as §1
A further assay has as its system SKW-3. The assay is described as follows: 7-day Cell Titer Glo viability assay. In kind it is cell-based, Human. As to conditions: SKW-3 cells, 7-day viability assay. As for the experimental part:
as §1

The subject of the next assay is SUPT-11. In words: 7-day Cell Titer Glo viability assay. The conditions noted are these: SUPT-11 cells, 7-day viability assay. The format is cell-based, Human. The procedure: as §1
The test system of a further assay is TALL-1. In words: 7-day Cell Titer Glo viability assay. As to conditions: TALL-1 cells, 7-day viability assay. The format is cell-based, Human. The procedure: as §1
For another assay, the system named is human T-ALL cell lines. The assay is described as follows: Grouping of 16 T-ALL cell lines by GSI sensitivity (7-day ATP viability assay). The format is cell-based. The procedure:
as §1
Previous studies have identified mutations in the heterodimerization domain or PEST domain of the NOTCH1 gene in T-ALL cell lines and patient samples resulting in increased NICD and presumably activation of the NOTCH signaling pathway (Weng, Ferrando et al. 2004; Zhu, Zhao et al. 2006). In a subset of human T-ALL cell lines with activating mutations in NOTCH1, treatment with GSIs leads to cell cycle arrest and apoptosis (Weng, Ferrando et al. 2004; Lewis, Leveridge et al. 2007). […] We determined IC50 values for 16 T-ALL cell lines using a 7-day viability assay which allowed grouping into four sensitivity groups (1) high, IC50<1 uM, (2) medium, IC50 3-4 uM, (3) low, IC50 6-7 uM, (4) none, IC50>10 uM and comparison to NOTCH1 mutuation and NICD protein Levels (Table1).
GSI IC50s, based on a 7-day ATP viability assay, are summarized for 16 T-ALL cell lines and grouped into high […], medium (3-4 uM), low (6-7 uM) or insensitive groupings (>10 uM). Also summarized is NOTCH1 mutation status, NICD levels and cell line group size for each sensitivity level previously described (O'Neil et al. 2007). NICD levels are reported qualitatively based on immunoblot signal, 0=none, 1=low, 2=medium, 3=high.

A further assay concerns TALL1. In words: Flow cytometry DNA content analysis (cell cycle arrest). The format is cell-based, Human. As to conditions: GSI sensitive cell line TALL1, flow cytometry. The procedure: DNA content analysis was performed using Propidium Iodide/RNase buffer (BD Biosciences, Cat. No. 550825, San Jose, Calif.) or Draq5. Briefly, 1×10(6) cells were harvested and fixed with 70% ethanol for 20 minutes on ice, washed and then resupended in 500 uL of PI buffer for 15 min at room temperature followed by analysis on flow cytometer (FACSCalibur, BD Biosciences). Draq5 staining was performed by incubating 200,000 live cells with 10 uM Draq5 for 5 minutes followed by flow cytometric analysis (488 nm excitation).
Background: A flow cytometer gives signals particle by particle.

Assay [1] relates to CDKN2D, CDKN1B. The assay is described as follows: Quantitative PCR of CDKN2D and CDKN1B in T-ALL cell lines. The conditions noted are these: TALL1 cells, 48 hours. In kind it is cell-based, Human. As for the experimental part: T-ALL cell lines were treated with DMSO or MRK-003 (active GSI) for 48 hours and then harvested. RNA was isolated using the RNeasy Mini Kit (Qiagen, Cat#: 74106). cDNA was synthesized using High Capacity Archive Kit (Applied Biosystems, Cat #: 4368814). qPCR was performed on an ABI 7900 using AACT protocol using their inventoried Taqman Probes/Primers for human CDKN2D, CDKN1B and GAPDH (as internal control). Analysis was performed in SDS 2.2.2 software (Applied Biosystems).

In assay [2] the test system is CDKN2D, CDKN1B. The assay is described as follows: Immunoblot of CDKN2D and CDKN1B. In kind it is cell-based, Human. The conditions noted are these: TALL1 cells. An excerpt: Standard western blotting procedures were used. Antibodies used as follows; Rb-underphosphorylated, (BD Biosciences, Cat. No 554164, San Jose, Calif.) Rb-Total (Cat. No. 9309), CDKN1B (Cell Signaling Technologies, Cat. No. 2552, Danvers, Mass.), CDKN2D (Santa Cruz Biotechnologies, Cat No. sc-1063, Santa Cruz, Calif.), Beta-Actin (Abcam Inc., Cat. No. 8226, Cambridge, Mass.) Immunoblot of NOTCH intracellular domain (NICD) was previously determined (O'Neil, Grim et al. 2007)
Background: A western blot detects proteins with antibodies after separation by electrophoresis.

We go through one compound from US20130178391A1, “METHODS FOR PREDICTING TREATMENT RESPONSE BASED ON THE EXPRESSION PROFILES OF BIOMARKER GENES IN NOTCH MEDIATED CANCERS” (Rosetta Inpharmaceutics LLC, priority 2007, published 2013).

By IC50 is commonly meant the concentration needed to halve the response being measured. A higher IC50 goes with weaker potency in that assay.

For `O=S1(=O)N[C@@]2(CN1CC(F)(F)F)[C@@H]1CC[C@H]2Cc2ccc(/C=C/CN3CCC(C(F)(F)F)CC3)cc2C1` [MRK-003], the half-maximal inhibitory concentration (IC50) is 6.8 µM in the assay with BE-13; 3.2 µM with CEM; 0.25 µM in the assay with DND41; 0.38 µM with HBP-ALL; 3.7 µM in the assay with HSB-2; greater than 10 µM in the assay on JURKAT. The half-inhibitory concentration (IC50) in the assay with KARPAS-45 was 0.81 µM; in the assay with KOPTK-1 it was 0.15 µM; with LOUCY, greater than 10 µM; in the assay with MOLT -4, greater than 10 µM; in the assay with MOLT-16, greater than 10 µM; with PF-382 it was 3.2 µM. The 50% inhibitory concentration (IC50) is 0.86 µM in the assay on RPMI 8402, greater than 10 µM in the assay with SKW-3, 7.1 µM with SUPT-11 and 0.11 µM in the assay with TALL-1. Moreover, the “GSI Sensitivity” value was “Low (low, IC50 6-7 uM)” in the assay on human T-ALL cell lines (cell lines BE-13, SUPT-11); “Medium (medium, IC50 3-4 uM)” with human T-ALL cell lines (cell lines CEM, PF-382, HSB-2); “None (none, IC50>10 uM)” with human T-ALL cell lines (cell lines JURKAT, LOUCY, MOLT -4, MOLT-16, SKW-3); “High (high, IC50<1 uM)” in the assay on human T-ALL cell lines (cell lines TALL-1, KOPTK-1, DND41, HBP-ALL, KARPAS-45, RPMI 8402). In addition, the “cell cycle arrest (FIG. 3A)” value in the assay on TALL1 was “induced cell cycle arrest”. Moreover, the “increases in CDKN2D and CDKN1B by quantitative PCR (FIG. 3B)” value in the assay on CDKN2D, CDKN1B [1] is “increases in the CDKi CDKN2D and CDKN1B”. The “increases in CDKN2D and CDKN1B by immunoblot (FIG. 3C)” value with CDKN2D, CDKN1B [2] is “increases in the CDKi CDKN2D and CDKN1B”.
